In patent publication US8841312B2, “Fused pyridine, pyrimidine and triazine compounds as cell cycle inhibitors” (Amgen Inc., priority 2007, dated 2014) one finds IC50 data, which are given here for 29 compounds.

In the test the target is Cdk4/CyclinD1 (Homo sapiens (Human), UniProt P11802). Briefly: Cdk4 kinase inhibition assay with recombinant Cdk4/CyclinD1, Rb substrate, [33P]-ATP filter plate. The class given is biochemical. The settings on record: 25 μM ATP, read-out: Cdk 4 IC50. The method, then: The Cdk4 and Cdk6 inhibitory activity of the compounds is measured with a kinase inhibition assay using recombinant Cdk4/CyclinD1 or Cdk6/CyclinD3 protein complexes. The protein substrate used in the assay is the retinoblastoma protein (Rb). The kinase reactions are carried out in a 96-well filter plate (MSDV N6B50, Millipore). […] The mixture is incubated at room temperature for 1 hour and the proteins precipitated with an equal volume of 20% TCA. The plates are washed with 10% TCA according to the manufacturer's instruction and dried at room temperature. The amount of the phosphorylated Rb is determined with a TopCount (PerkinElmer). The IC50 of a compound is determined by nonlinear regression curve fitting using software program Prism 5 (GraphPad Software).
Chain of Cdk4/CyclinD1 (P11802 whole entry): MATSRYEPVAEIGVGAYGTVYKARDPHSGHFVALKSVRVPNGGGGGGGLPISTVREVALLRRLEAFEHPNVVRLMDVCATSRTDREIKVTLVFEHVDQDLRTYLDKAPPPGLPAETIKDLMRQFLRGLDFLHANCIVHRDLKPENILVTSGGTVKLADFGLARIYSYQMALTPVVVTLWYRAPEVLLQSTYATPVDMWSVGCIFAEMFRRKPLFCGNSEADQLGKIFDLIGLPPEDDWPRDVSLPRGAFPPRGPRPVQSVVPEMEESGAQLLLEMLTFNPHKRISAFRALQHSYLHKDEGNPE
Chain of Cdk4/CyclinD1 (P24385 whole entry partner): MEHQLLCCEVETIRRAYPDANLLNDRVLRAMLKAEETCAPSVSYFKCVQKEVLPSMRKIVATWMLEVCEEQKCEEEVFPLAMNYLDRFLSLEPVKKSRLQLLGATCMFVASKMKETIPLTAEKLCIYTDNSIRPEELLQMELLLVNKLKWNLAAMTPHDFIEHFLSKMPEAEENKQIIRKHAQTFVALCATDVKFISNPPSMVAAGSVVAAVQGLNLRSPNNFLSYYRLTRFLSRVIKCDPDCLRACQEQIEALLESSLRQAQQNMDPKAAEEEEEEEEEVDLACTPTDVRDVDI
As to `Cc1nc(Nc2ncc3c4ccnc(Cl)c4n(C4CCCC4)c3n2)ccc1N1CCNCC1` [Example 155, 8-Chloro-9-cyclopentyl-N-(6-methyl-5-(1-piperazinyl)-2-pyridinyl)-9H-pyrido[4′,3′:4,5]pyrrolo[2,3-d]pyrimidin-2-amine], the IC50 was 4.1 nM.
The result for `CC(C)n1c2cnccc2c2cnc(Nc3ccc(N4CCNCC4)cn3)nc21` [Example 159, 9-(1-methylethyl)-N-(5-(1-piperazinyl)-2-pyridinyl)-9H-pyrido[4′,3′:4,5]pyrrolo[2,3-d]pyrimidin-2-amine] reads 3 nM; that for `OCCN1CCN(c2ccc(Nc3ncc4c5ccnc(Cl)c5n(C5CCCC5)c4n3)nc2)CC1` [Example 166, 2-(4-(6-((8-Chloro-9-cyclopentyl-9H-pyrido[4′,3′:4,5]pyrrolo[2,3-d]pyrimidin-2-yl)amino)-3-pyridinyl)-1-piperazinyl)ethanol], 5.5 nM; that for `OCCN1CCN(c2ccc(Nc3ncc4c5ccnc(F)c5n(C5CCCC5)c4n3)nc2)CC1` [Example 170, 2-(4-(6-((9-Cyclopentyl-8-fluoro-9H-pyrido[4′,3′:4,5]pyrrolo[2,3-d]pyrimidin-2-yl)amino)-3-pyridinyl)-1-piperazinyl)ethanol], 2.5 nM.
Take `Cc1nc(Nc2ncc3c4ccnc(F)c4n(C4CCCC4)c3n2)ccc1N1CCNCC1` [Example 171, 9-Cyclopentyl-8-fluoro-N-(6-methyl-5-(1-piperazinyl)-2-pyridinyl)-9H-pyrido[4′,3′:4,5]pyrrolo[2,3-d]pyrimidin-2-amine]: the IC50 came out at 19 nM.
Turning to `CC(C)(O)CN1CCN(c2ccc(Nc3ncc4c5ccnc(F)c5n(C5CCCC5)c4n3)nc2)CC1` [Example 172, 1-(4-(6-((9-Cyclopentyl-8-fluoro-9H-pyrido[4′,3′:4,5]pyrrolo[2,3-d]pyrimidin-2-yl)amino)-3-pyridinyl)-1-piperazinyl)-2-methyl-2-propanol], the IC50 was determined as 5.6 nM.
Next, `N#CCC1CCN(c2ccc(Nc3ncc4c5ccnc(F)c5n(C5CCCC5)c4n3)nc2)CC1` [Example 173, (1-(6-((9-Cyclopentyl-8-fluoro-9H-pyrido[4′,3′:4,5]pyrrolo[2,3-d]pyrimidin-2-yl)amino)-3-pyridinyl)-4-piperidinyl)acetonitrile]: 56 nM; `COC(=O)CC1CCN(c2ccc(Nc3ncc4c5ccnc(F)c5n(C5CCCC5)c4n3)nc2)CC1` [Example 174, Methyl (1-(6-((9-cyclopentyl-8-fluoro-9H-pyrido[4′,3′:4,5]pyrrolo[2,3-d]pyrimidin-2-yl)amino)-3-pyridinyl)-4-piperidinyl)acetate]: 33 nM.
Next, `O=C(O)CC1CCN(c2ccc(Nc3ncc4c5ccnc(F)c5n(C5CCCC5)c4n3)nc2)CC1` [Example 175, (1-(6-((9-Cyclopentyl-8-fluoro-9H-pyrido[4′,3′:4,5]pyrrolo[2,3-d]pyrimidin-2-yl)amino)-3-pyridinyl)-4-piperidinyl)acetic acid]: 37 nM; `NC(=O)CC1CCN(c2ccc(Nc3ncc4c5ccnc(F)c5n(C5CCCC5)c4n3)nc2)CC1` [Example 176, 2-(1-(6-((9-Cyclopentyl-8-fluoro-9H-pyrido[4′,3′:4,5]pyrrolo[2,3-d]pyrimidin-2-yl)amino)-3-pyridinyl)-4-piperidinyl)acetamide]: 930 nM.
Take `C[C@H]1CNCCN1c1ccc(Nc2ncc3c4ccnc(F)c4n(C4CCCC4)c3n2)nc1` [Example 177, 9-Cyclopentyl-8-fluoro-N-(5-((2S)-2-methyl-1-piperazinyl)-2-pyridinyl)-9H-pyrido[4′,3′:4,5]pyrrolo[2,3-d]pyrimidin-2-amine]: the IC50 worked out at 5 nM.
As to `C[C@@H]1CN(c2ccc(Nc3ncc4c5ccnc(F)c5n(C5CCCC5)c4n3)nc2)CCN1` [Example 178, 9-Cyclopentyl-8-fluoro-N-(5-((3R)-3-methyl-1-piperazinyl)-2-pyridinyl)-9H-pyrido[4′,3′:4,5]pyrrolo[2,3-d]pyrimidin-2-amine], the IC50 was 5 nM.
Consider `C[C@H]1CN(c2ccc(Nc3ncc4c5ccnc(F)c5n(C5CCCC5)c4n3)nc2)CCN1` [Example 179, 9-cyclopentyl-8-fluoro-N-(5-((3S)-3-methyl-1-piperazinyl)-2-pyridinyl)-9H-pyrido-[4′,3′:4,5]pyrrolo[2,3-d]pyrimidin-2-amine], for which the IC50 was found to be 3.4 nM.
As to `C[C@@H]1CNCCN1c1ccc(Nc2ncc3c4ccnc(F)c4n(C4CCCC4)c3n2)nc1` [Example 180, 9-Cyclopentyl-8-fluoro-N-(5-((2R)-2-methyl-1-piperazinyl)-2-pyridinyl)-9H-pyrido[4′,3′:4,5]pyrrolo[2,3-d]pyrimidin-2-amine], the IC50 was found to be 2 nM.
Turning to `OCCN1CCN(c2ccc(Nc3ncc4c5ccncc5n(C5CCCC5)c4n3)nc2)CC1` [Example 191, 2-(4-(6-((9-Cyclopentyl-9H-pyrido[4′,3′:4,5]pyrrolo[2,3-d]pyrimidin-2-yl)amino)-3-pyridinyl)-1-piperazinyl)ethanol], the IC50 turned out to be 4.4 nM.
Consider `CN(C)CC(=O)N1CCN(c2ccc(Nc3ncc4c5ccnc(F)c5n(C5CCCC5)c4n3)nc2)CC1` [Example 193, 9-Cyclopentyl-N-(5-(4-((dimethylamino)acetyl)-1-piperazinyl)-2-pyridinyl)-8-fluoro-9H-pyrido[4′,3′:4,5]pyrrolo[2,3-d]pyrimidin-2-amine], for which the IC50 came to 68 nM.
As to `CC(=O)OCC(=O)N1CCN(c2ccc(Nc3ncc4c5ccnc(F)c5n(C5CCCC5)c4n3)nc2)CC1` [Example 194, 2-(4-(6-((9-cyclopentyl-8-fluoro-9H-pyrido[4′,3′:4,5]pyrrolo[2,3-d]pyrimidin-2-yl)amino)-3-pyridinyl)-1-piperazinyl)-2-oxoethyl acetate], the IC50 was found to be 600 nM.
As to `CN(CCO)C1CCN(c2ccc(Nc3ncc4c5ccnc(F)c5n(C5CCCC5)c4n3)nc2)CC1` [Example 195, 2-((1-(6-((9-Cyclopentyl-8-fluoro-9H-pyrido[4′,3′:4,5]pyrrolo[2,3-d]pyrimidin-2-yl)amino)-3-pyridinyl)-4-piperidinyl)(methyl)amino)ethanol], the IC50 came out at 13 nM.
For `OC[C@H]1CN(c2ccc(Nc3ncc4c5ccnc(F)c5n(C5CCCC5)c4n3)nc2)CCN1` [Example 196, ((2R)-4-(6-((9-Cyclopentyl-8-fluoro-9H-pyrido[4′,3′:4,5]pyrrolo[2,3-d]pyrimidin-2-yl)amino)-3-pyridinyl)-2-piperazinyl)methanol], the IC50 turned out to be 2.4 nM.
For `OC[C@H]1CN(c2ccc(Nc3ncc4c5ccncc5n(C5CCCC5)c4n3)nc2)CCN1` [Example 197, ((2R)-4-(6-((9-Cyclopentyl-9H-pyrido[4′,3′:4,5]pyrrolo[2,3-d]pyrimidin-2-yl)amino)-3-pyridinyl)-2-piperazinyl)methanol], the IC50 was found to be 4.2 nM.
Next, `OC[C@@H]1CN(c2ccc(Nc3ncc4c5ccncc5n(C5CCCC5)c4n3)nc2)CCN1` [Example 198, ((2S)-4-(6-((9-cyclopentyl-9H-pyrido[4′,3′:4,5]pyrrolo[2,3-d]pyrimidin-2-yl)amino)-3-pyridinyl)-2-piperazinyl)methanol]: 4.6 nM.
For `OC[C@@H]1CN(c2ccc(Nc3ncc4c5ccnc(F)c5n(C5CCCC5)c4n3)nc2)CCN1` [Example 199, ((2S)-4-(6-((9-cyclopentyl-8-fluoro-9H-pyrido[4′,3′:4,5]pyrrolo[2,3-d]pyrimidin-2-yl)amino)-3-pyridinyl)-2-piperazinyl)methanol], the half-inhibitory concentration (IC50) turned out to be 4.5 nM.
Consider `c1cc2c3cnc(Nc4ccc(N5CCC(N6CCCC6)CC5)cn4)nc3n(C3CCCC3)c2nn1` [Example 201, 9-cyclopentyl-N-(5-(4-(1-pyrrolidinyl)-1-piperidinyl)-2-pyridinyl)-9H-pyrimido[5′,4′:4,5]pyrrolo[2,3-c]pyridazin-7-amine], for which the IC50 is 26 nM.
For `CN(C)C1CCN(c2ccc(Nc3ncc4c5ccncc5n(C5CCC(C)(C)CC5)c4n3)cn2)CC1` [Example 205, N-(6-(4-(dimethylamino)-1-piperidinyl)-3-pyridinyl)-9-(4,4-dimethylcyclohexyl)-9H-pyrido[4′,3′:4,5]pyrrolo[2,3-d]pyrimidin-2-amine], the IC50 stood at 2.6 nM.
As for `CC1(C)CCC(n2c3cnccc3c3cnc(Nc4ccc(N5CCC(N6CCCC6)CC5)cn4)nc32)CC1` [Example 206, 9-(4,4-dimethylcyclohexyl)-N-(5-(4-(1-pyrrolidinyl)-1-piperidinyl)-2-pyridinyl)-9H-pyrido[4′,3′:4,5]pyrrolo[2,3-d]pyrimidin-2-amine], the IC50 stood at 14 nM.
As to `COc1nccc2c3cnc(Nc4ccc(N5CCNCC5)cn4)nc3n(C3CCC(C)(C)CC3)c12` [Example 207, 9-(4,4-dimethylcyclohexyl)-8-methoxy-N-(5-(1-piperazinyl)-2-pyridinyl)-9H-pyrido[4′,3′:4,5]pyrrolo[2,3-d]pyrimidin-2-amine], the IC50 is 10 nM.
The result for `CC1(C)CCC(n2c3nc(Nc4ccc(N5CCNCC5)cn4)ncc3c3ccnc(O)c32)CC1` [Example 208, 9-(4,4-dimethylcyclohexyl)-2-((5-(1-piperazinyl)-2-pyridinyl)amino)-9H-pyrido[4′,3′:4,5]pyrrolo[2,3-d]pyrimidin-8-ol] reads 1.8 nM; that for `COc1nccc2c3cnc(Nc4ccc(N5CCC(N6CCCC6)CC5)cn4)nc3n(C3CCC(C)(C)CC3)c12` [Example 209, 9-(4,4-dimethylcyclohexyl)-8-methoxy-N-(5-(4-(1-pyrrolidinyl)-1-piperidinyl)-2-pyridinyl)-9H-pyrido[4′,3′:4,5]pyrrolo[2,3-d]pyrimidin-2-amine], 11 nM; that for `CC1(C)CCC(n2c3nc(Nc4ccc(N5CCC(N6CCCC6)CC5)cn4)ncc3c3ccnc(O)c32)CC1` [Example 210, 9-(4,4-dimethylcyclohexyl)-2-((5-(4-(1-pyrrolidinyl)-1-piperidinyl)-2-pyridinyl)amino)-9H-pyrido[4′,3′:4,5]pyrrolo[2,3-d]pyrimidin-8-ol], 6.6 nM.

The IC50 is the midpoint of a concentration-inhibition curve.
